Source: patent US8889411B2, “Modulation of stem and progenitor cell differentiation, assays, and uses thereof” (Anthrogenesis Corporation, priority 2002, dated 2014)

Tests used:
[1] = system: Bone marrow and cord blood CD34+ progenitor cells; test: Differentiation of CD34+ progenitor cells into dendritic cells, cell surface phenotype by flow cytometry; assay type: cell-based, human; parameters: key to Cell Population CD15+ / Cell Population CD34+ CD38− / Cell Population CD34− CD38+ / Cell Population CD1a+ CD14− / Cell Population CD1a− CD14+: ↑: up arrow indicates an increase in the cell population; ↓: down arrow indicates a decrease; conditions: day 6; SCF, Flt-3L, GM-CSF and TNF-α; versus DMSO-treated control
Method: Bone marrow and cord blood CD34^+ progenitor cells were obtained from Clonetics and cultured in Iscove's MDM with BIT 95000 (StemCell Technologies) in the presence of SCF, Flt-3L, GM-CSF and TNF-α for 6 days, and then in the presence of GM-CSF and TNF-α for 6 additional days.
Analysis of cell surface phenotype: Cells were processed for double staining (30 min at 4° C.) at day 6 and day 12 using FITC and PE conjugated mAbs. Antibodies used were from BD Pharmingen: CD34 (PE), CD38 (FITC), CD33 (FITC), CD1a (FITC), CD86 (PE), CD14 (PE), CD83 (PE), CD54 (PE), CD11b (PE), CD11c (PE), HLA-DR (PE), CD15 (FITC), and CD133 (PE) from Miltenyi. Fluorescence analysis was performed on a FACScan flow cytometer after acquisition of 10,000 events (Coulter). Results presented are representative of four independent experiments.
The methodology described above, i.e., the examination of the effect of IMiDs such as ACTIMID™ on the differentiation on early progenitor cells, such as CD34^+ cells, can be applied to any compound of interest, the effect of which on differentiation is desired to be known. As an example of the extension of this assay method to other compounds, we compared the effect of retinoic acid (ATRA) and aspirin to that of ACTIMID™ on the differentiation of CD34^+ cells toward the DC lineage versus the control (DMSO-treated) cells. Retinoic acid was studied because of its known effect on cellular proliferation and differentiation, its therapeutic use in some cancer, and its known teratogenic effect. Conversely, we studied the effect of aspirin because it is a commonly-used anti-inflammatory drug with no immunomodulatory properties. The results at day 6 of CD34^+ progenitors cells cultured in the presence of SCF, Flt-3L, GM-CSF and TNF-α, with or without compound for a period of 6 days, are presented below in Table 2 (up arrow indicates an increase in the cell population; down arrow indicates a decrease).

[2] = system: Murine Sca+Lin− hematopoietic progenitor cells; test: Generation of murine dendritic cells from bone marrow Sca+Lin− progenitors, cell surface phenotype; assay type: cell-based, mouse (C57BL/6)
Source text: Mouse bone marrow from inbred C57BL/6 mice was obtained from Clonetics. Hematopoietic Sca+Lin− progenitors were enriched using SpinSep murine progenitor enrichment cocktail (StemCell Technologies) and cultured in Iscove's MDM with BIT 95000 (StemCell Technologies) in the presence of murine growth factors SCF, Flt3L, GM-CSF and M-CSF for 9 days, to promote expansion of Sca+ cells and a DC precursor phenotype and then in the presence of GM-CSF and TNF-α for 3 additional days to drive the cells to an immature DC phenotype. Enriched Sca+Lin− cells were cultured in the presence of DMSO (0.1%), ACTIMID™ at 10 μM or all-trans retinoic acid (ATRA) (ICN Biomedicals) at 10 μM from day 0. Compounds were added to cells at day 0 and day 9.
Analysis of Murine cell surface phenotype: Murine cells were processed for double staining (14 min at RT) at day 9 and day 12; using FITC and PE conjugated mAbs. Antibodies used were from BD Pharmingen: Sea (PE), CD11b (FITC), Gr-1 (FITC), CD86 (PE), CD14 (PE), CD80 (PE), I-A^b (PE), CD40 (PE) and CD32.1/16.1 (FITC) from Miltenyi. Fluorescence analysis was performed on a FACScan flow cytometer (Coulter) after acquisition of 10,000 events.

[3] = system: Purified human cord blood CD34+ cells; test: Monocyte production: CD34/CD14 staining of cord blood CD34+ cells cultured 14 days with cytokines; assay type: cell-based; conditions: 14 days
Method: Purified human cord blood CD34+ cells (greater than 90% CD34+) were cultured in 20% FCS IMDM medium supplemented with cytokines (IL3, IL6, G-CSF, KL and Epo) at 4×10^4 cells/ml for 14 days at 37° C. in a humidified 5% CO2 incubator. The experimental groups consisted of a group in which (i) no DMSO or chemical compounds were added (“None”), (ii) DMSO only, (iii) Thalidomide dissolved in DMSO, (iv) ACTIMID™ dissolved in DMSO, and (v) REVIMID™ dissolved in DMSO. Aliquots of cells were harvested and stained with CD34-PE conjugated monoclonal antibody and CD14-FITC conjugated monoclonal antibody.

[4] = system: Human Cord Blood CD34+ Cells; test: FACS analysis of proliferation and differentiation of cord blood CD34+ cells cultured with IL3, G-CSF and Kit-ligand; assay type: cell-based; conditions: for CD11b+ Cell Population / CD34+CD38+ Cell Population / CD34+CD38− Cell Population: 7 days
Method: CB CD34+ cells were initiated at 4×10^4 cells/ml in a 24-well plate in 20% FCS IMDM (fetal calf serum/Iscove's Modified Dulbecco's Medium) supplemented with cytokines (1 L3, GCSF and Kit-ligand) (R&D Systems, Inc.). Thalidomide (Thal), ACTIMID™ or REVIMID™ were included in the culture at three different concentrations: 5 μg/ml, 1 μg/ml and 0.3 μg/ml. The same volumes of DMSO were used as controls. A negative control without, any compound was also used (indicated by “none” in FIGS. 3-7). Cells were cultured at 37° C. and 5% CO2 in a humidified incubator for 7 days. Cells were then harvested from each well.
The total cell number from each well was determined by counting in a CELL-DYN® 1700 (Abbott Diagnostics) and the expression of CXCR4, CD45, CD34, CD38, CD 1 lb and Gly-A expression was analyzed by FACS (fluorescence-activated cell sorting) staining (FIGS. 3-7).
CB cells from two different donors (CB2276 and CB2417) were cultured, assayed and analyzed separately (Table 1).

SMILES: CC1=C(/C=C/C(C)=C/C=C/C(C)=C/C(=O)O)C(C)(C)CCC1 [All-trans RA, all-trans retinoic acid, reference compound]
- Cell Population CD1a+ CD14− [1]: ↓
- Cell Population CD1a− CD14+ [1]: ↓
- Cell Population CD15+ [1]: ↑
- Cell Population CD34+ CD38− [1]: ↓
- Cell Population CD34− CD38+ [1]: ↑
- CD80, I-A^b and Sca+ expression by day 9 ([2]; 10 μM from day 0, data not shown): marked downregulation
- expression of CD40 and CD80 ([2]; 10 μM, not shown): marked downregulation

SMILES: CC(=O)Oc1ccccc1C(=O)O [Aspirin, acetylsalicylic acid, reference compound]
- Cell Population CD1a+ CD14− [1]: No change
- Cell Population CD1a− CD14+ [1]: No change
- Cell Population CD15+ [1]: No change
- Cell Population CD34+ CD38− [1]: No change
- Cell Population CD34− CD38+ [1]: No change

SMILES: O=C1CCC(N2C(=O)c3ccccc3C2=O)C(=O)N1 (stereo not drawn) [Thalidomide, reference compound]
- percentage of CD34+ cells of the total cells ([3]; IL3, IL6, G-CSF, KL and Epo, compound dissolved in DMSO): 0.24%
- production of monocytes (CD14+ cells) ([3]; relative to DMSO-treated group): similar
- expression of CXCR4 ([4]; FACS analysis of surface proteins): not
- yield of cells ([4]; IL-3, KL and G-CSF, compared with the DMSO control): slightly higher number of cells
- effect on the proliferation of CD34+ cells ([4]; IL-3, KL and G-CSF, compared with the negative control (none)): do not have a significant effect
- CD11b+ Cell Population ([4]; donor CB2276, 0.3 μg/ml): 7.6%
- CD34+CD38+ Cell Population ([4]; donor CB2276, 0.3 μg/ml): 15.1
- CD34+CD38− Cell Population ([4]; donor CB2276, 0.3 μg/ml): 3.2
- CD11b+ Cell Population ([4]; donor CB2276, 1 μg/ml): 6.2%
- CD34+CD38+ Cell Population ([4]; donor CB2276, 1 μg/ml): 3.8
- CD34+CD38− Cell Population ([4]; donor CB2276, 1 μg/ml): 1.0
- CD11b+ Cell Population ([4]; donor CB2276, 5 μg/ml): 8.1%
- CD34+CD38+ Cell Population ([4]; donor CB2276, 5 μg/ml): 6.5
- CD34+CD38− Cell Population ([4]; donor CB2276, 5 μg/ml): 3.5
- CD11b+ Cell Population ([4]; donor CB2417, 0.3 μg/ml): 7.8%
- CD34+CD38+ Cell Population ([4]; donor CB2417, 0.3 μg/ml): 5.0
- CD34+CD38− Cell Population ([4]; donor CB2417, 0.3 μg/ml): 0.8
- CD11b+ Cell Population ([4]; donor CB2417, 1 μg/ml): 5.2%
- CD34+CD38+ Cell Population ([4]; donor CB2417, 1 μg/ml): 3.8
- CD34+CD38− Cell Population ([4]; donor CB2417, 1 μg/ml): 1.0
- CD11b+ Cell Population ([4]; donor CB2417, 5 μg/ml): 6.5%
- CD34+CD38+ Cell Population ([4]; donor CB2417, 5 μg/ml): 3.0
- CD34+CD38− Cell Population ([4]; donor CB2417, 5 μg/ml): 1.1
- CD38 status of the majority of CD34+ and CD34− cells ([4]; treated cell populations): mainly CD38+
